Tested on: granulation tissue in subcutaneously implanted wound chambers
Experiment: Rat wound chamber assay (granulation tissue formation)
Type: in vivo
Settings: for DNA / HYDROXY-PROLINE / TOTAL GYLCOSAMINO-GLYCANS / TOTAL PROTEIN / WET WEIGHT: harvest day 12, mean ± SEM; for increase in hydroxyproline: not statistically significant
Experimental: Male Sprague-Dawley specific pathogen free rats (300-350 g; Charles River Breeding Laboratories, Inc.) were used for this study. Rats were anesthetized with sodium pentobarbital (50 mg/kg body weight) by intraperitoneal injection. Using aseptic surgical technique, a 3 cm midline incision was made on the dorsal surface of the rat. A single pocket was formed under the panniculus carnosis by blunt dissection on one side of the animal. A 3 cm long×1 cm diameter sterile stainless steel wire mesh cylinder was then inserted subcutaneously. The wound chambers used were similar to those described by Schilling et. al. (Surgery 46, 702-710 (1959)) and utilized by Hunt et. al. (Am. J. Surg. 114, 302-307 (1967)) as wound healing models. The incision was closed with wound clips. The rats survived the operation well with no evidence of postoperative discomfort. Beginning 3 days after wound chamber implantation, the rats were randomly divided into 5 groups. At this time daily injections of 1) 10 μg CHO-derived EBP, 2) 1 μg CHO-derived EBP, 3) 8 μg E. coli derived EBP, 4) 5 μg recombinant platelet derived growth factor (PDGF), or 5) 0.1 ml sterile PBS and 1 mM CHAPS were begun and continued for a total of 9 days. The injections were made directly into the wound chamber through a silicone septum at the outer edge of the chamber. Twelve days after chamber implantation, the rats were sacrificed by CO2 asphyxiation. Immediately after sacrifice, the chambers were removed surgically and carefully opened. The enclosed granulation tissue was then weighed, and stored at -70° C. for future processing.
Granulation tissue samples were thawed and homogenized with a Polytron homogenizer in 2 ml of ice-cold distilled water for approximately 1 minute. Next, 2 ml of ice-cold 10% trichloroacetic acid was added to the homogenate and incubated at 4° C. for 1 hour. The TCA-precipitated samples were centrifuged (500 g, 10 minutes) at 4° C., washed once with 2 ml of ice-cold 5% TCA, and finally washed with 2 ml of ice-cold 95% ethanol containing 50 mM sodium acetate. Samples were defatted twice with 2 ml of ethanol:ether (3:1, v/v) at 20° C. After each defatting procedure, samples were centrifuged (500×g, 10 minutes) and the supernate discarded. The pellet was then dissolved in 1N sodium hydroxide and brought up to a volume of 10 ml.
Total protein was determined by taking an aliquot of the solubilized granulation tissue and assaying the sample according to the method of Bradford (Anal. Biochem. 72, 248-251 (1976)) Bovine serum albumin (Sigma Chemical Co., St. Louis, Mo.) was used for a protein standard curve.
Total DNA content was determined as deoxy-ribose by the colorimetric method of Burton (Biochem. J. 62, 315 (1956)). Briefly, a 1 ml aliquot of the solubilized sample (in 1N NaOH) was neutralized with the addition of 0.5 ml of 2N HCl. A 1 ml aliquot of the neutralized solution was extracted in 10% perchloric acid at 90° C. for 15 minutes. A 1 ml portion of the final extract was added to 2 ml activated diphenylamine (Sigma Chemical, St. Louis, Mo.) reagent and absorbance at 600 nm was measured after overnight incubation at room temperature. Hydrolyzed calf thymus DNA (Sigma) was used to construct the standard curve. The DNA content was measured as a rough index of the number of cells in the wound chamber, with the realization that cell type and cell cycle status also influence DNA content.
Total glycosaminoglycans (GAGs) were determined using chondroitin sulfate as a standard. A spectrophotometric assay for GAGs was run utilizing a change in absorption spectrum of the dye 1,9- dimethyl methylene blue (Farndale et al. Conn. Tiss. Res. 9, 247-248 (1982)).
Total collagen content was determined as hydroxyproline (an index of collagen content) after hydrolysis of the solubilized granulation tissue in 6N HCl at 110° C. for 24 hours. […]

[1] = 1 μg per chamber per day x 9 days
[2] = 1 μg per chamber per day x 9 days, listed as CHO-derived rEBP
[3] = 10 μg per chamber per day x 9 days
[4] = 10 μg per chamber per day x 9 days, listed as CHO-derived rEBP

Substance: CHO-EBP: recombinant EBP purified from supernatants of CHO cells transfected with the EBP gene; mainly EBP^1-150 and EBP^1-159
- DNA [1]: 232 ± 41 µg
- HYDROXY-PROLINE [1]: 318.7 ± 31.7 µg
- TOTAL GYLCOSAMINO-GLYCANS [1]: 589.2 ± 68.4 µg
- TOTAL PROTEIN [1]: 3.88 ± 0.44 mg
- WET WEIGHT [1]: 238.0 ± 24.1 mg
- DNA [2]: no significant differences
- HYDROXY-PROLINE [2]: no significant differences
- TOTAL GYLCOSAMINO-GLYCANS [2]: significant increase
- TOTAL PROTEIN [2]: no significant differences
- WET WEIGHT [2]: significant increase
- increase in hydroxyproline (1 μg/chamber/day): 21%
- DNA [3]: 650 ± 163 µg
- HYDROXY-PROLINE [3]: 354.5 ± 63.7 µg
- TOTAL GYLCOSAMINO-GLYCANS [3]: 627.9 ± 92.4 µg
- TOTAL PROTEIN [3]: 7.15 ± 1.23 mg
- WET WEIGHT [3]: 398.2 ± 70.9 mg
- DNA [4]: significantly increased
- TOTAL GYLCOSAMINO-GLYCANS [4]: significantly increased
- TOTAL PROTEIN [4]: significantly increased
- WET WEIGHT [4]: significantly increased
- increase in hydroxyproline (10 μg/chamber/day): 35%
